Data reported in article PMC10726352, “Discovery of KB-0742, a Potent, Selective, Orally Bioavailable Small Molecule Inhibitor of CDK9 for MYC-Dependent Cancers” (Journal of Medicinal Chemistry, 2023).
Several values for one entry are separate records, joined by “and”; a condition that tells them apart may be missing. Identical values can stand only once.

How the values were obtained:
[1] = system: BT-549; test: OncoPanel Multiplexed Cytotoxicity Assay; format: cell-based
[2] = system: Hs 578T; test: OncoPanel Multiplexed Cytotoxicity Assay; format: cell-based
[3] = system: MDA-MB-231; test: OncoPanel Multiplexed Cytotoxicity Assay; format: cell-based
[4] = system: MT-3; test: OncoPanel Multiplexed Cytotoxicity Assay; format: cell-based
[5] = system: BT-20; test: OncoPanel Multiplexed Cytotoxicity Assay; format: cell-based
[6] = Microsome stability; settings: human
[7] = Plasma protein binding; settings: human
[8] = Microsome stability; settings: rat
[9] = Plasma protein binding; settings: mouse
[10] = Projection of human PK parameters
[11] = Microsome stability; settings: mouse
[12] = Plasma concentration in CTG-1017 tumor-bearing mice; format: in vivo; settings: Athymic Nude-Foxn1nu, mouse, po, 60 mg/kg p.o.
[13] = in vitro; settings: rat, hepatocytes
[14] = Plasma protein binding; settings: dog
[15] = Pharmacokinetics; format: in vivo; settings: mouse
[16] = Pharmacokinetics; format: in vivo; settings: rat
[17] = Pharmacokinetics; format: in vivo; settings: dog
[18] = Microsome stability; settings: dog
[19] = in vitro; settings: dog, hepatocytes
[20] = in vitro; settings: mouse, rat, dog, human, microsomes and hepatocytes
[21] = Plasma protein binding; settings: rat
[22] = in vitro; settings: mouse, hepatocytes
[23] = LogD; format: physicochemical; settings: pH = 7.4
[24] = in vitro; settings: human, hepatocytes

For `CN[C@@H]1C[C@H]2O[C@@](C)([C@@H]1OC)n1c3ccccc3c3c4c(c5c6ccccc6n2c5c31)C(=O)NC4` [Staurosporine], the “Apoptosis Emax” value [1] was 6.9, the “Cell Count Activity Area” value [1] was 4.39 and the “G1/S cell cycle block” value ([1]; BT-549, 72 h) was 0.00531 µM. For the same compound, the GI50 ([1]; Homo sapiens, BT-549, 72 h, read-out: Cell count GI50) was 5.56 nM, the “Apoptosis Emax” value [2] was 6.48 and the “Cell Count Activity Area” value [2] was 4.99. For the same compound, the GI50 ([2]; Homo sapiens, Hs-578T, 72 h, read-out: Cell count GI50) was 1.45 nM, the “G1/S cell cycle block” value ([2]; Hs 578T, 72 h) was 0.000753 µM and the “Apoptosis Emax” value [3] was 5.32. The “Cell Count Activity Area” value [3] was 5.26, the IC50 ([3]; Homo sapiens, MDA-MB-231, 72 h, read-out: Cell count IC50) was 1.69 nM and the “G1/S cell cycle block” value ([3]; MDA-MB-231, 72 h) was 0.0122 µM. The “Apoptosis Emax” value [4] was 10.32, the “G1/S cell cycle block” value ([4]; MT-3, 72 h) was 0.0273 µM and the GI50 ([4]; MT-3, 72 h, read-out: Cell count GI50) was 9.39 nM. The “Apoptosis Emax” value [5] was 4.6, the “Cell Count Activity Area” value [5] was 2.58 and the “G1/S cell cycle block” value ([5]; BT-20, 72 h) was 0.00581 µM. It also gave an EC50 ([5]; Homo sapiens, BT-20, 72 h, read-out: Cell Count EC50) of 31.6 nM and a GI50 ([5]; Homo sapiens, BT-20, 72 h, read-out: Cell count GI50) of 23.6 nM.
For `CCC(CC)c1cc(N[C@H]2CC[C@H](N)C2)n2nccc2n1` [Compound 28, [(1S,3S)-3-[[5-(1-Ethylpropyl)pyrazolo[1,5-a]pyrimidin-4-ium-7-yl]amino]cyclopentyl]ammonium Dichloride], the Microsome stability [6] was 92.5 % remaining 180 min, the PPB [7] was 38 % bound and the Microsome stability [8] was 81.3 % remaining 180 min. For the same compound, the PPB [9] was 48 % bound, the “mean predicted human Vd,ss” value ([10]; 70 kg body weight, IVIVE and allometry) was 6.0 L/kg and the “predicted human oral bioavailability” value ([10]; derived from nonclinical species) was 75%. For the same compound, the half-life ([10]; human, plasma, one-compartment, read-out: estimated human terminal half-life (converted)) was ~35 h, the Microsome stability [11] was 87.4 % remaining 180 min and the concentration at 2 h ([12]; 2 h post-dose) was 846 ng/mL and 2.9 µM. For the same compound, the concentration at 8 h ([12]; 8 h post-dose) was 73 ng/mL and 250 nM, the CLint scaled [13] was 62 mL/min/kg and the half-life [13] was 1.97 h. The PPB [14] was 72 % bound, the “Vd,ss (i.v.)” value ([15]; i.v. 1.0 mg/kg) was 3.9 L/kg and the “AUC (p.o.)” value ([15]; p.o. 20 mg/kg) was 1700 ng·h/mL. For the same compound, the “Cmax (p.o.)” value ([15]; p.o. 20 mg/kg) was 501 ng/mL, the “T1/2 (i.v.)” value ([16]; i.v. 2.0 mg/kg) was 2.4 h and the “AUC (p.o.)” value ([16]; p.o. 10 mg/kg) was 3591 ng·h/mL. For the same compound, the “Cmax (p.o.)” value ([16]; p.o. 10 mg/kg) was 411 ng/mL, the “T1/2 (i.v.)” value ([17]; i.v. 0.50 mg/kg) was 4.7 h and the “Vd,ss (i.v.)” value ([17]; i.v. 0.50 mg/kg) was 4.5 L/kg. For the same compound, the F ([17]; p.o. […]) was >100%, the CLint scaled ([17]; plasma, iv, 0.5 mg/kg, i.v. 0.50 mg/kg) was 13.4 mL/min/kg and the Microsome stability [18] was 68.8 % remaining 180 min. The CLint scaled [19] was 38 mL/min/kg, the half-life [19] was 3.25 h and the half-life [20] was ≥ 2 h. For the same compound, the PPB [21] was 41 % bound, the CLint scaled [22] was 44 mL/min/kg and the logD [23] was 0.9. It also gave a CLint scaled [24] of 1.6 mL/min/kg and a half-life [24] of 39 h.
